Where two headings read alike, the source gives them in different places.
How the values were obtained:
[1] = test system: Fusarium oxysporum clinical strain; assay: Antifungal susceptibility testing, M38-A microdilution method (filamentous fungi); assay type: cell-based; details: read-out: % of growth inhibition
Procedure: (§1) Cabanillasin activity was tested against different fungal human pathogens: ascomycetes yeasts (Candida albicans ATCC 90029, Candida Glabrata ATCC 90030, Candida krusei ATCC 6258 and Candida lusitaniae CBS 6936), basidiomycetes yeasts (Cryptococcus neoformans clinical strain), ascomycetes filamentous fungi (Aspergilus fumigatus clinical strain, Fusarium oxysporum clinical strain) and zygomycetes filamentous fungi (Rhizopus oryzae environemental strain) by the M38-A microdilution method with RPMI 1640 medium (RPMI 1640, MOPS 160 mM, glucose 18 g/L, pH 7) as recommended in the […]. The NCCLS M27-A2 broth microdilution method (NCCLS) was used when yeasts were tested.
(§2) Yeasts and filamentous inoculi were prepared on YPD medium (yeast extract 10 g/L, peptone 10 g/L and glucose 20 g/L) and Malt medium (malt extract 20 g/L) respectively. The densities of inoculi were adjusted by dilution in RPMI 1640 broth to a value ranged from 5.10^2 to 5.10^3 CFU/mL for yeasts isolates and 5.10^3 to 5.10^4 CFU/mL for filamentous fungi. Microdilution trays (96 U-bottom shaped) containing 190 µL fungal inoculum were added with 10 µL Cabanillasin solution (final concentration ranging from 50 to 0.098 mg/L for all fungi). After inoculation of the trays, all microdilution trays were incubated at 35°C in ambient air. The culture absorbance was measured at 600 nm, 24 h and 48 h after the beginning of the experiments for the yeasts and 48 h and 72 h after the beginning of the experiments for filamentous fungi and Cryptococcus neoformans. The activity results correspond to a percentage of growth inhibition ((1-Abs600 nm culture with Cabanillasin)/ Abs600 nm culture without Cabanillasin) x 100.
(§3) The IC50 value is the concentration at which inhibition of growth is equal to 50%. MICs for Candida species were determined at 24 h and 48 h and corresponded to 100% of growth inhibition. Amphotericin B was provided as standard (final concentration ranging from 16 to 0.03 mg/L for all fungi). Experiments were done in duplicate.

[2] = test system: Rhizopus oryzae environemental strain; assay: as above; assay type: cell-based; details: Rhizopus arrhizus, read-out: % of growth inhibition
Procedure: as §1, §2, §3

Candida krusei ATCC 6258 = assay: Antifungal susceptibility testing, NCCLS M27-A2 broth microdilution (yeasts); assay type: cell-based; details: Pichia kudriavzevii, ATCC6258, read-out: % of growth inhibition
Procedure: as §1, §2, §3

[3] = test system: Candida albicans ATCC 90029; assay: as above; assay type: cell-based; details: read-out: % of growth inhibition; for inhibition at 0.03 µg/mL: ATCC90029, 0.03 µg/mL; for inhibition at 0.06 µg/mL: ATCC90029, 0.06 µg/mL; for inhibition at 0.12 µg/mL: ATCC90029, 0.12 µg/mL; for inhibition at 0.25 µg/mL: ATCC90029, 0.25 µg/mL; for inhibition at 0.5 µg/mL: ATCC90029, 0.5 µg/mL; for inhibition at 1 µg/mL: ATCC90029, 1 µg/mL; for inhibition at 2 µg/mL: ATCC90029, 2 µg/mL; for inhibition at 4 µg/mL: ATCC90029, 4 µg/mL; for inhibition at 8 µg/mL: ATCC90029, 8 µg/mL; for inhibition at 16 µg/mL: ATCC90029, 16 µg/mL
Procedure: as §1, §2, §3

[4] = test system: Aspergilus fumigatus clinical strain; assay: Antifungal susceptibility testing, M38-A microdilution method (filamentous fungi); assay type: cell-based, Aspergillus fumigatus; details: Aspergillus fumigatus, read-out: % of growth inhibition
Procedure: as §1, §2, §3

C[C@@H]1[C@H](O)[C@@H](C)/C=C/C=C/C=C/C=C/C=C/C=C/C=C/[C@H](O[C@@H]2O[C@H](C)[C@@H](O)[C@H](N)[C@@H]2O)C[C@@H]2O[C@](O)(C[C@@H](O)C[C@@H](O)[C@H](O)CC[C@@H](O)C[C@@H](O)CC(=O)O[C@H]1C)C[C@H](O)[C@H]2C(=O)O [Amphotericin B, reference compound]
inhibition at 0.03 µg/mL ([1]; 48 h incubation): 14%
inhibition at 0.03 µg/mL ([1]; 72 h incubation): 0%
inhibition at 0.06 µg/mL ([1]; 48 h incubation): 26.3%
inhibition at 0.06 µg/mL ([1]; 72 h incubation): 0%
inhibition at 0.12 µg/mL ([1]; 48 h incubation): 39.8%
inhibition at 0.12 µg/mL ([1]; 72 h incubation): 24.6%
inhibition at 0.25 µg/mL ([1]; 48 h incubation): 65.2%
inhibition at 0.25 µg/mL ([1]; 72 h incubation): 49.8%
inhibition at 0.5 µg/mL ([1]; 48 h incubation): 100%
inhibition at 0.5 µg/mL ([1]; 72 h incubation): 90.2%
inhibition at 1 µg/mL ([1]; 48 h incubation): 100%
inhibition at 1 µg/mL ([1]; 72 h incubation): 100%
inhibition at 2 µg/mL ([1]; 48 h incubation): 100%
inhibition at 2 µg/mL ([1]; 72 h incubation): 100%
inhibition at 4 µg/mL ([1]; 48 h incubation): 100%
inhibition at 4 µg/mL ([1]; 72 h incubation): 100%
inhibition at 8 µg/mL ([1]; 48 h incubation): 100%
inhibition at 8 µg/mL ([1]; 72 h incubation): 100%
inhibition at 16 µg/mL ([1]; 48 h incubation): 100%
inhibition at 16 µg/mL ([1]; 72 h incubation): 100%
inhibition at 0.03 µg/mL ([2]; 48 h incubation): 26.7%
inhibition at 0.03 µg/mL ([2]; 72 h incubation): 0%
inhibition at 0.06 µg/mL ([2]; 48 h incubation): 35%
inhibition at 0.06 µg/mL ([2]; 72 h incubation): 0%
inhibition at 0.12 µg/mL ([2]; 48 h incubation): 22%
inhibition at 0.12 µg/mL ([2]; 72 h incubation): 0%
inhibition at 0.25 µg/mL ([2]; 48 h incubation): 43.9%
inhibition at 0.25 µg/mL ([2]; 72 h incubation): 12%
inhibition at 0.5 µg/mL ([2]; 48 h incubation): 47.4%
inhibition at 0.5 µg/mL ([2]; 72 h incubation): 62.1%
inhibition at 1 µg/mL ([2]; 48 h incubation): 92.2%
inhibition at 1 µg/mL ([2]; 72 h incubation): 66%
inhibition at 2 µg/mL ([2]; 48 h incubation): 100%
inhibition at 2 µg/mL ([2]; 72 h incubation): 77.4%
inhibition at 4 µg/mL ([2]; 48 h incubation): 100%
inhibition at 4 µg/mL ([2]; 72 h incubation): 100%
inhibition at 8 µg/mL ([2]; 48 h incubation): 100%
inhibition at 8 µg/mL ([2]; 72 h incubation): 100%
inhibition at 16 µg/mL ([2]; 48 h incubation): 100%
inhibition at 16 µg/mL ([2]; 72 h incubation): 100%
inhibition at 0.03 µg/mL (Candida krusei ATCC 6258; 24 h incubation): 0%
inhibition at 0.03 µg/mL (Candida krusei ATCC 6258; 48 h incubation): 25%
inhibition at 0.06 µg/mL (Candida krusei ATCC 6258; 24 h incubation): 48.4%
inhibition at 0.06 µg/mL (Candida krusei ATCC 6258; 48 h incubation): 48%
inhibition at 0.12 µg/mL (Candida krusei ATCC 6258; 24 h incubation): 100%
inhibition at 0.12 µg/mL (Candida krusei ATCC 6258; 48 h incubation): 76.7%
inhibition at 0.25 µg/mL (Candida krusei ATCC 6258; 24 h incubation): 100%
inhibition at 0.25 µg/mL (Candida krusei ATCC 6258; 48 h incubation): 100%
inhibition at 0.5 µg/mL (Candida krusei ATCC 6258; 24 h incubation): 100%
inhibition at 0.5 µg/mL (Candida krusei ATCC 6258; 48 h incubation): 100%
inhibition at 1 µg/mL (Candida krusei ATCC 6258; 24 h incubation): 100%
inhibition at 1 µg/mL (Candida krusei ATCC 6258; 48 h incubation): 100%
inhibition at 2 µg/mL (Candida krusei ATCC 6258; 24 h incubation): 100%
inhibition at 2 µg/mL (Candida krusei ATCC 6258; 48 h incubation): 100%
inhibition at 4 µg/mL (Candida krusei ATCC 6258; 24 h incubation): 100%
inhibition at 4 µg/mL (Candida krusei ATCC 6258; 48 h incubation): 100%
inhibition at 8 µg/mL (Candida krusei ATCC 6258; 24 h incubation): 100%
inhibition at 8 µg/mL (Candida krusei ATCC 6258; 48 h incubation): 100%
inhibition at 16 µg/mL (Candida krusei ATCC 6258; 24 h incubation): 100%
inhibition at 16 µg/mL (Candida krusei ATCC 6258; 48 h incubation): 100%
inhibition at 0.03 µg/mL ([3]; 24 h incubation): 30.3%
inhibition at 0.03 µg/mL ([3]; 48 h incubation): 17%
inhibition at 0.06 µg/mL ([3]; 24 h incubation): 56.7%
inhibition at 0.06 µg/mL ([3]; 48 h incubation): 32%
inhibition at 0.12 µg/mL ([3]; 24 h incubation): 95.2%
inhibition at 0.12 µg/mL ([3]; 48 h incubation): 70%
inhibition at 0.25 µg/mL ([3]; 24 h incubation): 100%
inhibition at 0.25 µg/mL ([3]; 48 h incubation): 100%
inhibition at 0.5 µg/mL ([3]; 24 h incubation): 100%
inhibition at 0.5 µg/mL ([3]; 48 h incubation): 100%
inhibition at 1 µg/mL ([3]; 24 h incubation): 100%
inhibition at 1 µg/mL ([3]; 48 h incubation): 100%
inhibition at 2 µg/mL ([3]; 24 h incubation): 100%
inhibition at 2 µg/mL ([3]; 48 h incubation): 100%
inhibition at 4 µg/mL ([3]; 24 h incubation): 100%
inhibition at 4 µg/mL ([3]; 48 h incubation): 100%
inhibition at 8 µg/mL ([3]; 24 h incubation): 100%
inhibition at 8 µg/mL ([3]; 48 h incubation): 100%
inhibition at 16 µg/mL ([3]; 24 h incubation): 100%
inhibition at 16 µg/mL ([3]; 48 h incubation): 100%
inhibition at 0.03 µg/mL ([4]; 48 h incubation): 3%
inhibition at 0.03 µg/mL ([4]; 72 h incubation): 0%
inhibition at 0.06 µg/mL ([4]; 48 h incubation): 33.5%
inhibition at 0.06 µg/mL ([4]; 72 h incubation): 0%
inhibition at 0.12 µg/mL ([4]; 48 h incubation): 37.2%
inhibition at 0.12 µg/mL ([4]; 72 h incubation): 41.5%
inhibition at 0.25 µg/mL ([4]; 48 h incubation): 100%
inhibition at 0.25 µg/mL ([4]; 72 h incubation): 85.2%
inhibition at 0.5 µg/mL ([4]; 48 h incubation): 100%
inhibition at 0.5 µg/mL ([4]; 72 h incubation): 100%
inhibition at 1 µg/mL ([4]; 48 h incubation): 100%
inhibition at 1 µg/mL ([4]; 72 h incubation): 100%
inhibition at 2 µg/mL ([4]; 48 h incubation): 100%
inhibition at 2 µg/mL ([4]; 72 h incubation): 100%
inhibition at 4 µg/mL ([4]; 48 h incubation): 100%
inhibition at 4 µg/mL ([4]; 72 h incubation): 100%
inhibition at 8 µg/mL ([4]; 48 h incubation): 100%
inhibition at 8 µg/mL ([4]; 72 h incubation): 100%
inhibition at 16 µg/mL ([4]; 48 h incubation): 100%
inhibition at 16 µg/mL ([4]; 72 h incubation): 100%
